Source: the NIST ThermoML archive (doi:10.1016/j.jct.2004.07.027)
± gives the expanded uncertainty stated by the source.

Assay: mn = molality of the nth substance listed, in mol/kg
Details: 350 kPa, Liquid, Extra sensitive DSC

C1COCCOCCOCCOCCOCCO1 [1,4,7,10,13,16-hexaoxacyclooctadecane] + O
apparent molar heat capacity [J/K/mol]
Details | 338.15 K | 343.15 K | 348.15 K | 353.15 K | 358.15 K | 363.15 K
m1 = 0.01001 | 925.2 ± 8.3 | 932.5 ± 8.4 | 939.9 ± 8.4 | 946.2 ± 8.2 | 951.4 ± 8.2 | 956.3 ± 8.5
m1 = 0.02001 | 920.5 ± 4.1 | 929.1 ± 4.1 | 936.3 ± 4.1 | 942 ± 4.1 | 946.9 ± 4.1 | 950.6 ± 4.1
m1 = 0.03002 | 920.9 ± 2.7 | 929.3 ± 2.7 | 936.4 ± 2.7 | 942.4 ± 2.8 | 947.4 ± 2.8 | 951.5 ± 2.7
m1 = 0.0401 | 927.9 ± 2.1 | 936.1 ± 2.1 | 942.7 ± 2.1 | 949 ± 2.1 | 954.1 ± 2.1 | 957.7 ± 2.1
m1 = 0.04995 | 928.1 ± 1.7 | 936.3 ± 1.7 | 943.1 ± 1.7 | 949.2 ± 1.7 | 954 ± 1.7 | 957.7 ± 1.7
m1 = 0.06015 | 927.8 ± 1.5 | 936.3 ± 1.5 | 943.5 ± 1.4 | 949 ± 1.4 | 953.6 ± 1.4 | 957.3 ± 1.4
m1 = 0.08002 | 927.2 ± 1.1 | 935.5 ± 1.1 | 942.4 ± 1 | 948.1 ± 1 | 952.9 ± 1 | 956.5 ± 1.1
m1 = 0.1224 | 926.44 ± 0.7 | 934.88 ± 0.7 | 941.88 ± 0.69 | 947.6 ± 0.69 | 952.29 ± 0.69 | 955.71 ± 0.72
m1 = 0.1472 | 926.89 ± 0.67 | 935.27 ± 0.7 | 942.17 ± 0.71 | 947.8 ± 0.7 | 952.42 ± 0.69 | 955.85 ± 0.68
m1 = 0.1935 | 925.61 ± 0.58 | 934.03 ± 0.58 | 941.03 ± 0.58 | 946.84 ± 0.58 | 951.41 ± 0.55 | 954.72 ± 0.51
m1 = 0.2925 | 924.48 ± 0.4 | 932.93 ± 0.39 | 939.88 ± 0.4 | 945.53 ± 0.39 | 949.82 ± 0.37 | 952.93 ± 0.35
